Results taken from paper PMC6627744, “A Tiny Change Makes a Big Difference in the Anti-Parasitic Activities of an HDAC Inhibitor” (International Journal of Molecular Sciences, 2019).
pIC50: −log10 of the molar value. Read-outs that look alike come from different tables or passages of the source.

Columns and labels:
T. gondii = assay: Anti-T. gondii activity in infected HFF monolayers, strain not given; assay type: cell-based, Toxoplasma gondii
Procedure: (§1) Confluent Human Foreskin Fibroblast (HFF) monolayers were infected with YFP-type I Rh kindly provided by B. Striepen or Tomato-type II Pru kindly provided by Professor N. Blanchard (Toulouse), at 5 × 10^4 parasites per well. They were then centrifuged for 30 s at 250 g and incubated for 30 min in a water bath at 37 °C to allow invasion. The wells were washed three times with PBS to eliminate extracellular parasites, and the drugs were added at concentrations ranging from 0.01 to 3.0 μM. After incubation for 24 h at 37 °C in a humidified atmosphere containing 5% CO2, the cells were fixed in 2.5% methanol-free formaldehyde (Tebu-bio, Le Perray-en-Yvelines, France)/PBS for 30 min at room temperature. Nuclei were stained with Hoechst 33258 (2 µg/mL, Molecular Probes) for 20 min and washed three times with water. The number of infected cells, i.e., cells harboring a parasitophorous vacuole (see supplementary data S3 for an example), and the number of parasites per vacuole were determined using an Olympus ScanR microscope (×20 objective) and ScanR software. The parasitic index in % compared to the control was calculated as follows: [Parasitic index (PI) = ((number of parasite/100 cells in treated wells) × (% of infected macrophage in treated well)/(number of parasite/100 cells in untreated wells) × (% of infected macrophage in untreated wells)) × 100].

[1] = test system: RH type I strain of T. gondii; parameters: method as in PMID 29414107; details: cited from earlier work
[2] = test system: Pru type II strain of T. gondii; parameters: method as in PMID 29414107; details: read-out: IC50, inhibition of T. gondii type II strain; cited from earlier work
[3] = test system: Pru type II strain of T. gondii; assay: Anti-T. gondii activity in infected HFF monolayers, type II strain; assay type: cell-based; details: Toxoplasma gondii, 24 h, read-out: IC50, inhibition of T. gondii type II strain
Procedure: as §1

[4] = test system: RH type I strain of T. gondii; assay: Anti-T. gondii activity in infected HFF monolayers, type I strain; assay type: cell-based, Toxoplasma gondii
Procedure: as §1

[5] = test system: HeLa cell nuclear extract, which contains mainly HDACs 1, 2, 6, and 8; assay: HDAC inhibition, HeLa nuclear extract (fluorometric HDAC assay kit); assay type: biochemical, human; details: HeLa nuclear extracts; ratio of IC50 versus 363
Procedure: (§2) The HDACi effect against HeLa nuclear extracts and recombinant proteins were measured using a fluorometric HDAC assay kit (Active Motif, La Hulpe, Belgium) according to the manufacturer’s instructions. Briefly, 30 μL of HeLa nuclear extract (Active Motif, Belgium) or HDAC 1 recombinant protein (Active Motif, Belgium) were mixed with 5 μL of a 10× compound and 10 μL of assay buffer. A positive control, containing trichostatin A at a final concentration of 2 μM, was analyzed for each independent experiment. A fluorogenic substrate (10 μL) was added, and the reaction was allowed to proceed for 30 min at room temperature and then stopped by the addition of a developer containing trichostatin A. The fluorescence was monitored after 30 min at excitation and emission wavelengths of 360 and 460 nm, respectively.

recombinant HDAC1 enzyme = target: T1, recombinant HDAC1 enzyme (Homo sapiens, UniProt Q13547); assay: HDAC inhibition, recombinant HDAC1 (fluorometric HDAC assay kit); assay type: biochemical; details: Figure 1B
T1 construct: purchased Active Motif
Procedure: as §2

T1 sequence (Q13547 whole entry): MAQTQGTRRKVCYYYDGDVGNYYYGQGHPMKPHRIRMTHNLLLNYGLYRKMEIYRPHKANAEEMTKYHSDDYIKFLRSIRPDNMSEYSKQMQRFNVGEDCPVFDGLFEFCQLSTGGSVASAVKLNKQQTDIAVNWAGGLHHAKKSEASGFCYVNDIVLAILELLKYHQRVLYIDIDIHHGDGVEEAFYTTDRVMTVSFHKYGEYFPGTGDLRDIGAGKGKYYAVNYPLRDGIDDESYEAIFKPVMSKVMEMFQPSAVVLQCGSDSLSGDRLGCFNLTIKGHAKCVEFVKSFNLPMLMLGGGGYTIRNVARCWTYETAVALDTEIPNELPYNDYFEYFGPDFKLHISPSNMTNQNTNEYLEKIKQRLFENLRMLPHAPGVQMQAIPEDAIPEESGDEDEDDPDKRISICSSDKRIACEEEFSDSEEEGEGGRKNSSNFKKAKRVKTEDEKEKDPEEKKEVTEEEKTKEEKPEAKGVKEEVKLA

With `CCc1nc(N)nc(N)c1-c1ccc(Cl)cc1` [Pyrimethamine, reference compound] as the molecule, how does the pIC50 (T. gondii; Toxoplasma gondii, positive control, strain not stated) read?
The pIC50 was 6.34.

Which results are given for `COc1cccc(CC(=O)Nc2ccc(C(=O)NO)cc2)c1` [Compound 363, N-hydroxy-4-[2-(3-methoxyphenyl)acetamido]benzamide]?
pIC50 ([1]; type I strain, read-out: IC50, inhibition of T. gondii type I strain): 6.46; fold higher susceptibility of type I strains than type II strains ([1]; type I versus type II): 6 fold; pIC50 [2]: 5.64; pIC50 [3]: 6.07; pIC50 ([4]; Toxoplasma gondii, type I (RH) strain, HFF, 24 h, read-out: IC50, inhibition of T. gondii type I strain): 6.82; fold higher susceptibility of type I strains than type II strains ([4]; type I versus type II, this work): 5.5 fold

With `COc1ccccc1CNC(=O)c1ccc(C(=O)NO)cc1` [Compound D16, 1-N-hydroxy-4-N-[(2-methoxyphenyl)methyl]benzene-1,4-dicarboxamide] as the molecule, how does the “fold less efficient in HDACi activity compared to 363” value [5] read?
Its value is 13 fold.

What about the anti-parasitic activity (T. gondii; even at concentrations higher than 1000 nM, RH type I and Pru type II strains (Figure 1C)) of the same molecule?
The anti-parasitic activity was “No anti-parasitic activity”.

And the “potency on deacetylase activity of recombinant HDAC1, compared to 363” value (recombinant HDAC1 enzyme)?
Its value is “lower potency”.
